# Measured values from ChEMBL document CHEMBL5696442, “Discovery of type II inhibitors of TGFβ-activated kinase 1 (TAK1) and mitogen-activated protein kinase kinase kinase kinase 2 (MAP4K2)” (J Med Chem, 2015).
# The source made the active and inactive calls. No cut-off for these calls is given here.
# How the values were obtained:
# [1] = target: eIF-2-alpha kinase GCN2 (Homo sapiens) (UniProt Q9P2K8); assay: Inhibition of GCN2 domain2 Lys2 labeling site in human Huh-7 cell lysate at 1 uM by KiNativ Profiling analysis relative to control; type: subcellular
# [2] = target: Dual specificity mitogen-activated protein kinase kinase 1 (Homo sapiens) (UniProt Q02750); assay: Inhibition of MAP2K1 Lys2 labeling site harbouring DVKPSNILVNSR in human Huh-7 cell lysate at 1 uM by KiNativ Profiling analysis relative to control; type: subcellular
# [3] = target: T1, Dual specificity mitogen-activated protein kinase kinase 6 (Homo sapiens) (UniProt P52564); assay: Inhibition of MAP2K6 Lys1 labeling site in human Huh-7 cell lysate at 1 uM by KiNativ Profiling analysis relative to control; type: subcellular
# T1 sequence (whole entry): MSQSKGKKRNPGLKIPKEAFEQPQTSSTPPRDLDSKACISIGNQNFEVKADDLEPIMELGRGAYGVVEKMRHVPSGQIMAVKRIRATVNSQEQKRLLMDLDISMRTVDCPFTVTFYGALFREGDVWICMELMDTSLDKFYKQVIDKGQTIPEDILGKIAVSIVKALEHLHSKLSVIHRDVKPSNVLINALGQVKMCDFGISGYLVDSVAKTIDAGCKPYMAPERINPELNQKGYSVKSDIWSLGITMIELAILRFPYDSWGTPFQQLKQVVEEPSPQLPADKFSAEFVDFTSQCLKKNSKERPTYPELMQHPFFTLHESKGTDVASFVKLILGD
# [4] = target: Phosphatidylinositol 4,5-bisphosphate 3-kinase catalytic subunit beta isoform (Homo sapiens) (UniProt P42338); assay: Inhibition of PIK3CB ATP labeling site harbouring VFGEDSVGVIFKNGDDLR in human Huh-7 cell lysate at 1 uM by KiNativ Profiling analysis relative to control; type: subcellular
# [5] = target: T2, Phosphatidylinositol 5-phosphate 4-kinase type-2 alpha (Homo sapiens) (UniProt P48426); assay: Inhibition of PIP4K2A ATP labeling site harbouring AKELPTLKDNDFINEGQK in human Huh-7 cell lysate at 1 uM by KiNativ Profiling analysis relative to control; type: subcellular
# T2 sequence (whole entry): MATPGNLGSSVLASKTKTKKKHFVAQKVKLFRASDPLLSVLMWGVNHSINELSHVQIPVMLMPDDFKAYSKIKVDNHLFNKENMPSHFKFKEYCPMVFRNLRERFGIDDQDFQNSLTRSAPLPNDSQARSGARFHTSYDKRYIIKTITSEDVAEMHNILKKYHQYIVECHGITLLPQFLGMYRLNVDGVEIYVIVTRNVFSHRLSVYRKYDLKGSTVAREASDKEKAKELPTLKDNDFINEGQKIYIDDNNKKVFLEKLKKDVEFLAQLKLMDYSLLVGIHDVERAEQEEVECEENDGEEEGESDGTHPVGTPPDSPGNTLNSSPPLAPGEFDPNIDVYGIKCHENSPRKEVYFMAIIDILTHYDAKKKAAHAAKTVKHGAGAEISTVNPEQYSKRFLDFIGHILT
# [6] = target: Serine/threonine-protein kinase PLK1 (Homo sapiens) (UniProt P53350); assay: Inhibition of PLK1 Lys1 labeling site harbouring CFEISDADTKEVFAGKIVPK in human Huh-7 cell lysate at 1 uM by KiNativ Profiling analysis relative to control; type: subcellular
# [7] = target: Dual specificity mitogen-activated protein kinase kinase 2 (Homo sapiens) (UniProt P36507); assay: Inhibition of MEK2 (unknown origin) at 10 uM by Ambit Kinomescan binding assay
# [8] = target: Ribosomal protein S6 kinase alpha-6 (Homo sapiens) (UniProt Q9UK32); assay: Inhibition of C-terminal RPS6KA6 kinase domain 2 (unknown origin) at 10 uM by Ambit Kinomescan binding assay
# [9] = target: Wee1-like protein kinase (Homo sapiens) (UniProt P30291); assay: Inhibition of WEE1 (unknown origin) at 10 uM by Ambit Kinomescan binding assay
# [10] = target: T3, Dual specificity mitogen-activated protein kinase kinase 4 (Homo sapiens) (UniProt P45985); assay: Inhibition of MAP2K4 Lys1 labeling site in human A-375 cells at 0.5 uM by KiNativ Profiling analysis relative to control; type: cell-based
# T3 sequence (whole entry): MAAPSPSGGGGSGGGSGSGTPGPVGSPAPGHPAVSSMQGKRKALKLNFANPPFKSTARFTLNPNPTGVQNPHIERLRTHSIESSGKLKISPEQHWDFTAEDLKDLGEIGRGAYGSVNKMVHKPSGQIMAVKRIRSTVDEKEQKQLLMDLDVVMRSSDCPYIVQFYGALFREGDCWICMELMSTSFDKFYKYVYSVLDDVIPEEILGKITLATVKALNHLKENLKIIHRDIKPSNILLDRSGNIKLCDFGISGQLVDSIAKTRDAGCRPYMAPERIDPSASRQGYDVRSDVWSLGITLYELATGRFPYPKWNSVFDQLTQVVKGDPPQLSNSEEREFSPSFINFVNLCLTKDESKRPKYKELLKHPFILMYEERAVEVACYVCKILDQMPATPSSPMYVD
# [11] = target: Serine/threonine-protein kinase B-raf (Homo sapiens, UniProt P15056); assay: Inhibition of BRAF K2 labeling site in human Huh-7 cells at 10 uM by KiNativ Profiling analysis relative to control; type: cell-based
# [12] = target: Serine/threonine-protein kinase PAK 5 (Homo sapiens) (UniProt Q9P286); assay: Inhibition of PAK7 (unknown origin) at 1 uM by Ambit Kinomescan binding assay relative to control
# [13] = target: STE20-like serine/threonine-protein kinase (Homo sapiens) (UniProt Q9H2G2); assay: Inhibition of SLK (unknown origin) at 1 uM by Ambit Kinomescan binding assay relative to control
# [14] = target: Cyclin-dependent kinase 1 (Homo sapiens) (UniProt P06493); assay: Inhibition of CDC2 Lys2 labeling site harbouring DLKPQNLLIDDKGTIK in human A-375 cells at 5 uM by KiNativ Profiling analysis relative to control; type: cell-based
# [15] = target: Phosphatidylinositol 4,5-bisphosphate 3-kinase catalytic subunit alpha isoform (Homo sapiens) (UniProt P42336); assay: Inhibition of PIK3CA ATP labeling site in human A-375 cells at 0.5 uM by KiNativ Profiling analysis relative to control; type: cell-based
# [16] = target: Cyclin-G-associated kinase (Homo sapiens) (UniProt O14976); assay: Inhibition of GAK (unknown origin) at 1 uM by Ambit Kinomescan binding assay relative to control; values are per cent of control
# [17] = target: Cyclin-dependent kinase 3 (Homo sapiens) (UniProt Q00526); assay: Inhibition of CDK3 (unknown origin) at 1 uM by Ambit Kinomescan binding assay relative to control; values are per cent of control
# [18] = target: Cyclin-dependent kinase-like 3 (Homo sapiens) (UniProt Q8IVW4); assay: Inhibition of CDKL3 (unknown origin) at 1 uM by Ambit Kinomescan binding assay relative to control; values are per cent of control
# [19] = test system: Fibroblast growth factor receptor 3 (Homo sapiens), P22607 [G697C]; assay: Inhibition of FGFR3 G697C mutant (unknown origin) at 1 uM by Ambit Kinomescan binding assay relative to control; values are per cent of control
# Sequence of Cyclin-dependent kinase-like 3 (Homo sapiens) (Q8IVW4 whole entry, looked up): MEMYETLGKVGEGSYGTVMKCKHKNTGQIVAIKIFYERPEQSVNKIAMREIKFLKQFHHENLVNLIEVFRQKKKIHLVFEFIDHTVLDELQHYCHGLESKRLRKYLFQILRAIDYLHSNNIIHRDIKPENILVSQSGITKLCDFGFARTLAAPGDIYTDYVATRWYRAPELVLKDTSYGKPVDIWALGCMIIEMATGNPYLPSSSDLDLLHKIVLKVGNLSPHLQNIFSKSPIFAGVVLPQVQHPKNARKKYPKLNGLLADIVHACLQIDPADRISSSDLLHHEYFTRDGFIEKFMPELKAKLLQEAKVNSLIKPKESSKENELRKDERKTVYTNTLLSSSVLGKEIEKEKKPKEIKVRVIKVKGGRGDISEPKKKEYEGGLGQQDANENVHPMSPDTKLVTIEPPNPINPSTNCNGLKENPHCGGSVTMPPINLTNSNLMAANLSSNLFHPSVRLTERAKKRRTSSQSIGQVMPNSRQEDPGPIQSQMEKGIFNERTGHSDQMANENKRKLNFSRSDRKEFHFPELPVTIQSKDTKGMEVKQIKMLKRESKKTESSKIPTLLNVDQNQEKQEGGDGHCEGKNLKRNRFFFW
# Sequence of Cyclin-dependent kinase 3 (Homo sapiens) (Q00526 whole entry, looked up): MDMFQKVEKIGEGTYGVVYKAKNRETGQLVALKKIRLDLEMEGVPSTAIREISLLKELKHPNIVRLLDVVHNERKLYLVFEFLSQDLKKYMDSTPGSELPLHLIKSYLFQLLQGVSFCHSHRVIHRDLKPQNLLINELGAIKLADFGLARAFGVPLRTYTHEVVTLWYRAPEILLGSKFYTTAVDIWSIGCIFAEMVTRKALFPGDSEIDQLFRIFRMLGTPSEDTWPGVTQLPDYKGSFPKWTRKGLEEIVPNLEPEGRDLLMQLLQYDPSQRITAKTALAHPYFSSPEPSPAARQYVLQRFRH
# Sequence of Serine/threonine-protein kinase PAK 5 (Homo sapiens) (Q9P286 whole entry, looked up): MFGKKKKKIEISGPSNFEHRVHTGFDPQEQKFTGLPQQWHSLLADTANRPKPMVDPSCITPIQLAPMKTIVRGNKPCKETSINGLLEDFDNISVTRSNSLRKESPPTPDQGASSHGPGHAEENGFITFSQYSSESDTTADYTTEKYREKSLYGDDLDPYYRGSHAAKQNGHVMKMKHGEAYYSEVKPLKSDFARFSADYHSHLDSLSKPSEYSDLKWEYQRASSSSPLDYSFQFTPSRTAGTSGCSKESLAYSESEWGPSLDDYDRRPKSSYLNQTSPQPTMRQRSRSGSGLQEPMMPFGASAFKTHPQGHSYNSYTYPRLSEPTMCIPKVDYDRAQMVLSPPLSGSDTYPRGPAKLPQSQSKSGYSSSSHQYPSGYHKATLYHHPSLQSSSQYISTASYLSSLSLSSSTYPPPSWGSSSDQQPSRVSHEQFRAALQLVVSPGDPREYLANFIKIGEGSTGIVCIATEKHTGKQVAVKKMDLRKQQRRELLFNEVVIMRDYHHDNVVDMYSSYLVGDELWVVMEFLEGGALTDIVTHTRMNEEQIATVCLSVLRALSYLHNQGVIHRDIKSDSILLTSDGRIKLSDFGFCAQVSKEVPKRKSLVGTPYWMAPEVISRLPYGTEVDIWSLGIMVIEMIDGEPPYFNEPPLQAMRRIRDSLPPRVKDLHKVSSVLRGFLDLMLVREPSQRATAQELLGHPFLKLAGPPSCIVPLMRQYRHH
# Sequence of Dual specificity mitogen-activated protein kinase kinase 1 (Homo sapiens) (Q02750 whole entry): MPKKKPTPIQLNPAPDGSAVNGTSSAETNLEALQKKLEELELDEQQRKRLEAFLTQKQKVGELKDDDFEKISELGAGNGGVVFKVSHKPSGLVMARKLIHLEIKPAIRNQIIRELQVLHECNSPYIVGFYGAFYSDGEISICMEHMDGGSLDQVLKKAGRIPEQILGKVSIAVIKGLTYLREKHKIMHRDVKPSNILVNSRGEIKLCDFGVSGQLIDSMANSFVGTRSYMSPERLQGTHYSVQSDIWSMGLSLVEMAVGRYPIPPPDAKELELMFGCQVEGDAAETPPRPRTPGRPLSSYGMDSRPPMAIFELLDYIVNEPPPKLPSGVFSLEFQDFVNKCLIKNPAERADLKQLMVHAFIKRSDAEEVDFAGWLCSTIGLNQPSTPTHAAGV
# Sequence of Phosphatidylinositol 4,5-bisphosphate 3-kinase catalytic subunit alpha isoform (Homo sapiens) (P42336 whole entry, canonical isoform): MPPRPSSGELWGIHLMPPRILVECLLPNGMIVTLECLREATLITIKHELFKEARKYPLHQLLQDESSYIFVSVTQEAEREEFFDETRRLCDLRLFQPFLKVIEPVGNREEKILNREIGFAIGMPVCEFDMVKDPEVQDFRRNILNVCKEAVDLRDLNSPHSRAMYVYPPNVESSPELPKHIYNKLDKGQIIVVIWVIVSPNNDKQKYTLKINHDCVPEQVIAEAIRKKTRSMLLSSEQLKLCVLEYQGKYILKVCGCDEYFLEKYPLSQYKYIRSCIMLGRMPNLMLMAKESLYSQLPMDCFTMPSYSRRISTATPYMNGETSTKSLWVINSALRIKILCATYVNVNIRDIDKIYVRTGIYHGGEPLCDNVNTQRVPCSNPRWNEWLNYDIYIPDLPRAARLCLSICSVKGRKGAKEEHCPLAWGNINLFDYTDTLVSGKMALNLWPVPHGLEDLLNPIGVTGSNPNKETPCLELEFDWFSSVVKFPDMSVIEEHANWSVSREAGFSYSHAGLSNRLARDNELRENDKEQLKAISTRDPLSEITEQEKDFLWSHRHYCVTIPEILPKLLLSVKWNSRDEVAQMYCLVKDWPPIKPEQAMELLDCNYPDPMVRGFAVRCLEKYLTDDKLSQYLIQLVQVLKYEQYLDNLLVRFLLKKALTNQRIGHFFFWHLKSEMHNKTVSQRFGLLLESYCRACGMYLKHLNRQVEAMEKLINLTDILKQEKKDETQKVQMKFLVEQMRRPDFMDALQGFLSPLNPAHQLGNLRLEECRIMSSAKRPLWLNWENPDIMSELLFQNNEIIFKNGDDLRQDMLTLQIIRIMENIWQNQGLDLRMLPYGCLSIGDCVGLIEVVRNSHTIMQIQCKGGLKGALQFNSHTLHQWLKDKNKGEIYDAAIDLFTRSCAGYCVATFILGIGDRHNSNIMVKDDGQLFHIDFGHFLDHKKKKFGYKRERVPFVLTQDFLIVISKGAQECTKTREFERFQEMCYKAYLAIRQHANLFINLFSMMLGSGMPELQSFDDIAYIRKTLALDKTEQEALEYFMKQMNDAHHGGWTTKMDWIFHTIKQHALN
# Sequence of eIF-2-alpha kinase GCN2 (Homo sapiens) (Q9P2K8 whole entry, the tested form may be a part): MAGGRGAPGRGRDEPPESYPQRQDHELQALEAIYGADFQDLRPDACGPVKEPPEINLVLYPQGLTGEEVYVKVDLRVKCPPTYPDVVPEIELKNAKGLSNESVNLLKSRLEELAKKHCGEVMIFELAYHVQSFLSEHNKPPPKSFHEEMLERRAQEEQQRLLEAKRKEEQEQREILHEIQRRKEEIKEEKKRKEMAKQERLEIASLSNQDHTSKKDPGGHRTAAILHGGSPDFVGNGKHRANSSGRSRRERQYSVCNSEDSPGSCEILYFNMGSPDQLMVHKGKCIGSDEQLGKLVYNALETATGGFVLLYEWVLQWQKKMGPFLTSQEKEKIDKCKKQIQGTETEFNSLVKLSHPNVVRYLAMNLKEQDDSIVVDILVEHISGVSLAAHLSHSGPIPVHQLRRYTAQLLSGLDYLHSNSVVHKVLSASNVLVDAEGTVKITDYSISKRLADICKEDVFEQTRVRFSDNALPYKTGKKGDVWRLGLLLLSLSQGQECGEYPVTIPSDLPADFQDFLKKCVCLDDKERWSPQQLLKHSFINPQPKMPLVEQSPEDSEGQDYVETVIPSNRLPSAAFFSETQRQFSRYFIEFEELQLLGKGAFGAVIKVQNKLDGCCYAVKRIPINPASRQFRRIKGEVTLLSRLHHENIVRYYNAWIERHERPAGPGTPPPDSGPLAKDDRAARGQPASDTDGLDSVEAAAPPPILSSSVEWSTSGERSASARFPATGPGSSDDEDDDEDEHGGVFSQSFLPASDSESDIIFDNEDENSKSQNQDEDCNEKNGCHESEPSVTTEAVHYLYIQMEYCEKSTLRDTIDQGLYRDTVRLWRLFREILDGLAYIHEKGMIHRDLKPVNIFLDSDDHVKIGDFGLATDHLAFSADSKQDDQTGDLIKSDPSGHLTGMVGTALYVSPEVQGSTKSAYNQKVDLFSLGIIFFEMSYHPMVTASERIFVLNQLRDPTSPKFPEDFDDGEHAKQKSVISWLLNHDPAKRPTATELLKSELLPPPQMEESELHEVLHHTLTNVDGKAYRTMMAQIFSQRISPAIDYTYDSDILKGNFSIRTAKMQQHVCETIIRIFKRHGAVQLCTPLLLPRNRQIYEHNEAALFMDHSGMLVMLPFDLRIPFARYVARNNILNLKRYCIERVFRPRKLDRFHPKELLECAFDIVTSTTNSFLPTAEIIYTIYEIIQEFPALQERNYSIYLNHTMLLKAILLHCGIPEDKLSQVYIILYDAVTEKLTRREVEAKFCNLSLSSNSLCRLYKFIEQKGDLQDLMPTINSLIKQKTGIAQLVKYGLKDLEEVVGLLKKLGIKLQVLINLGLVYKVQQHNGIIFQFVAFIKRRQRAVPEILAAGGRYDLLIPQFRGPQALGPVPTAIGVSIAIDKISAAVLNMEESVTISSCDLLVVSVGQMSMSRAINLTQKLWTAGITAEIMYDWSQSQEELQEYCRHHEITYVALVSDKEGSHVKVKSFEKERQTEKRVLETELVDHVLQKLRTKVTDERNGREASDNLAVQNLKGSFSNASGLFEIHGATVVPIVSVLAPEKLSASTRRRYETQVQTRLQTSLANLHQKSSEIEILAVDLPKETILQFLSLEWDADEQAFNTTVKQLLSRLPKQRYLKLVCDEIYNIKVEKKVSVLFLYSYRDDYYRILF
# Sequence of Cyclin-dependent kinase 1 (Homo sapiens) (P06493 whole entry, looked up, canonical isoform): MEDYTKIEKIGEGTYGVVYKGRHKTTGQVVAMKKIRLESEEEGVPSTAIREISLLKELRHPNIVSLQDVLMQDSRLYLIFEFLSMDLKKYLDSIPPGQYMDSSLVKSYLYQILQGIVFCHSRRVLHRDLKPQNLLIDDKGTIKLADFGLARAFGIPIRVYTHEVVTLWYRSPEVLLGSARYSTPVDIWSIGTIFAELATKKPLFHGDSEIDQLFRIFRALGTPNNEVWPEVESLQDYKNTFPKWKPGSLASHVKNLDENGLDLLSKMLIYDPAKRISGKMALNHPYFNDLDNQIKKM
smiles,measurement,setting,value
CNc1cc(Oc2cc(C(=O)Nc3cc(N4CCN(C)CC4)cc(C(F)(F)F)c3)ccc2C)ncn1,inhibition,[1],2.5%
same,inhibition,[2],15.6%
same,inhibition,[3],5.3%
same,inhibition,[4],-1.3%
same,inhibition,[5],0.1%
same,inhibition,[6],1%
CCN1CCN(Cc2ccc(NC(=O)c3ccc(C)c(Oc4ccnc5[nH]ccc45)c3)cc2C(F)(F)F)CC1,inhibition,[7],inactive
same,inhibition,[8],inactive
same,inhibition,[9],inactive
same,inhibition,[10],-4%
same,inhibition,[11],5.2%
CCN1CCN(Cc2ccc(NC(=O)c3ccc(C)c(/C=C/c4cnc5[nH]ccc5c4OC)c3)cc2C(F)(F)F)CC1,inhibition,[12],70%
same,inhibition,[13],13%
same,inhibition,[14],-6.1%
same,inhibition,[15],34.5%
same,residual activity,[16],7%
same,% of control,[17],100%
same,residual activity,[18],50%
same,residual activity,[19],23%
